The subject of experiment [1] is emetic response to apomorphine hydrochloride. Kind of experiment: Abolition of the emetic response to apomorphine hydrochloride. The following applies: Canis lupus familiaris, sc; S.C.; dog; apomorphine hydrochloride 0.1 mg/kg subcutaneously; active doses (mg/kg); read-out: Anti-Emetic ED 50. It is filed as in vivo. The method, then:
2. Compounds were also tested for abolition of the emetic response to apomorphine hydrochloride (0.1 mg/kg subcutaneously) in the dog

For experiment [2], the system named is dopamine receptor. In words: Inhibition of stereotype behaviour induced by apomorphine. It is filed as in vivo, rat. As to conditions: for Inhibition of Stereo-Type Behaviour, active dose: S.C., rat, active doses (mg/kg); for Inhibition of Stereo-Type Behaviour, number of rats: at 50mg S.C. The method, then:
(§1) 1. Compounds prepared in the Examples were tested for the following pharmacological activities in the rat:
(c) Inhibition of stereotype behaviour induced by apomorphine.
This is indicative of dopamine receptor blockade in the central nervous system.
The method of Ernst A. M. (1967) Pyschopharmocologia (Berl.) 10 pp. 316-323 was followed.

For experiment [3], the system named is apomorphine induced delay in gastric emptying. Kind of experiment: Increase in gastric emptying - reversal of apomorphine induced delay in gastric emptying of a test meal. Format: in vivo, rat. The following applies: S.C.; rats with chronic gastric fistula; Apomorphine HCl 5 mg/kg subcutaneously 15 minutes prior; active doses (mg/kg). The method, then: as §1
(b) Increase in gastric emptying-reversal of apomorphine induced delay in gastric emptying of a test meal.
Rats equipped with chronic gastric fistula were used and it was through this that 5 ml of a test meal (5 ml phosphate buffer at pH 9) was administered and recovered. The % recovery of the standard meal after remaining in the stomach for 10 minutes was taken as an index of gastric emptying. Delay in gastric emptying was induced by the administration of Apomorphine HCl (5 mg/kg subcutaneously) and was given 15 minutes prior to the administration of the Compound. The % recoveries of the test meal was determined at 15-25 and 45-55 minutes post dosing with the Compound and compared with vehicle only dosed animals set up simultaneously. Six animals were used for each group.

Experiment [4] has as its system intragastric pressure. Kind of experiment: Increase in intragastric pressure. Format: in vivo, rat. As to conditions: conscious restrained rats with gastric fistula, 40 minutes after administration, active doses (mg/kg). The method, then: as §1
(a) Increase in intragastric pressure
Intragastric pressure changes were recorded from previously starved conscious and restrained rats using a saline filled catheter inserted into the lumen of the stomach via a permanent gastric fistula. The catheter was connected to a physiological pressure transducer and pressure changes recorded on a hot wire pen recorder. In each animal a pre-dose period of 40 minutes was allowed to obtain a measure of spontaneous activity. An index of activity was obtained by measuring the average height of pressure waves during 10 minute periods. Values for 4 such periods were obtained during assessment of spontaneous activity and for the 40 minute period after the administration of the Compounds. Student "t" test was applied to the difference in average values obtained for spontaneous and post Compound activity.

SMILES strings stand for the structures.

For `COc1cc(N)c(Cl)cc1C(=O)NC1CCC2CCCCN2C1` (stereo not drawn) [Example 6, 4-Amino-5-chloro-2-methoxy-N-(3-quinolizidinyl)-benzamide], the ED50 in experiment [1] came out at 1.4 mg/kg. Also, in experiment [2], the “Inhibition of Stereo-Type Behaviour, active dose” value (from here on “Inhibition … active dose”) is 50 mg and the “Inhibition of Stereo-Type Behaviour, number of rats” value is 3 out of 7 rats.

Regarding `COc1cc(N)c(Cl)cc1C(=O)NN1CCN2CCCCC2C1` (stereo not drawn) [Example 12], in experiment [1], the ED50 stood at 2 mg/kg.

Regarding `COc1cc(N)c(Cl)cc1C(=O)NC1CCN2CCc3ccccc3C2C1` (stereo not drawn) [Example 10, 4-Amino-5-chloro-N-[2-(2H-benzo[a]-quinolizine-1,3,4,6,7,11b-hexahydro)]-2-methoxy-benzamide], the “Increase in Gastric Emptying, active dose” value (shortened to “Increase in Gastric Emptying”) in experiment [3] is 50 mg.

Take `COc1cc(N)c(Cl)cc1C(=O)NC1CCN2CCCCC2C1` (stereo not drawn) [Example 2, 4-Amino-5-chloro-2-methoxy-N-(2-quinolizidinyl)-benzamide]: the “Increase in Gastric Emptying” value in experiment [3] is recorded as 25 mg. In addition, the ED50 in experiment [1] turned out to be 0.7 mg/kg. The entries for the “Increase in Intra-Gastric Pressure, active dose” value in experiment [4] (P.O.) and in experiment [4] (S.C.) were 50 mg and 2.5 mg, respectively. The “Inhibition … active dose” value in experiment [2] turned out to be 15 mg.

Consider `COc1cc(N)c(Cl)cc1C(=O)NC1CCN2CCCC2C1` (stereo not drawn) [Example 4, 4-Amino-5-chloro-2-methoxy-N-(7-octahydro-indolizinyl)-benzamide], for which, in experiment [3], the “Increase in Gastric Emptying” value stood at 50 mg. In experiment [1], the ED50 is less than 2 mg/kg. For the same compound, in experiment [4] (S.C.), the “Increase in Intra-Gastric Pressure, active dose” value amounted to 5 mg. For the same compound, in experiment [2], the “Inhibition … active dose” value is 50 mg and the “Inhibition of Stereo-Type Behaviour, number of rats” value was 4 out of 7 rats.

As to `COc1cc(N)c(Cl)cc1C(=O)NC1CC2CCCCN2C1` (stereo not drawn) [Example 14, 4-Amino-5-chloro-2-methoxy-N-(2-octahydroindolizinyl)-benzamide], the “Increase in Gastric Emptying” value in experiment [3] is reported as 50 mg. Further, the ED50 in experiment [1] is less than 2 mg/kg. Moreover, the “Inhibition … active dose” value in experiment [2] was determined as 50 mg.

As for `COc1cc(N)c(Cl)cc1C(=O)NC1CCCN2CCCCC12` (stereo not drawn) [Example 8b, 4-Amino-5-chloro-2-methoxy-N-(1-quinolizidinyl)-benzamide], the ED50 in experiment [1] was less than 2 mg/kg. The “Inhibition … active dose” value in experiment [2] was 50 mg.

As for `COc1cc(N)c(Cl)cc1C(=O)NC1CCN2C(C)CCCC2C1` (stereo not drawn) [Example 16, 4-Amino-5-chloro-2-methoxy-N-(6-methyl-2-quinolizidinyl)-benzamide], in experiment [4] (S.C.), the “Increase in Intra-Gastric Pressure, active dose” value came out at 1 mg.
